Data published in article PMC4019984, “Kinase and channel activity of TRPM6 are co-ordinated by a dimerization motif and pocket interaction” (Biochemical Journal, 2014).

Experiments:
[1] = tested on: full-length FLAG-tagged kinase-inactive TRPM6; assay: Peptide pull-down, full-length kinase-inactive TRPM6; format: binding, human; settings: full-length kinase-inactive TRPM6, HEK-293 lysate, 3 μg peptide, 4°C; anti-FLAG immunoblot
Method: (§1) The peptides biotin-C6-[…]-TIPFTPVQLFAGEEITV (wild-type) and biotin-C6-LKSPQE-[…] (mutant) were purchased from GL Biochem. For a peptide pull-down, 1–5 mg of lysate was incubated with 3 μg of the respective peptide for 10 min at 4°C under gentle agitation, followed by 5 min of incubation with 10–20 μl of streptavidin beads at 4°C. The immunoprecipitates were washed three times with lysis buffer containing 0.15 M NaCl and then twice with buffer A. Proteins were eluted by resuspending washed immunoprecipitates in 30 μl of SDS sample buffer.
Figure 2 Identification of dimerization motif residues in TRPM6 (A) Structural model of TRPM7 α-kinase depicting the N-terminal non-catalytic α-helix of one monomer that interacts with the kinase segment of the other monomer. (B) Fluorescence polarization analysis of wild-type (WT) and mutant (Mut) dimerization motif peptides with E. coli-purified GST-tagged TRPM6-(1730–end). […] The samples were analysed by immunoblotting with anti-GST antibody (top panel). […] Proteins were separated by SDS/PAGE, stained with Coomassie Blue (top and middle gels) and MBP phosphorylation was detected by autoradiography (bottom gel). […] Proteins were separated by SDS/PAGE, stained with Coomassie Blue (top and middle gels) and MBP phosphorylation was detected by autoradiography (bottom gel). […] The pull-down samples were analysed by immunoblotting with anti-FLAG antibody (top panel). […]

[2] = biological target: T1, GST-tagged TRPM6-(1730–end) (Homo sapiens, UniProt Q9BX84); assay: Peptide pull-down, TRPM6-(1730–end); format: binding; settings: HEK-293 lysate 1–5 mg, 3 μg biotinylated peptide, 10 min at 4°C, streptavidin beads; anti-GST immunoblot
T1 construct: E. coli-purified GST-tagged TRPM6-(1730–end); made in house; host or cells: E. coli BL21
T1 sequence (Q9BX84 1730-2022 limits assumed): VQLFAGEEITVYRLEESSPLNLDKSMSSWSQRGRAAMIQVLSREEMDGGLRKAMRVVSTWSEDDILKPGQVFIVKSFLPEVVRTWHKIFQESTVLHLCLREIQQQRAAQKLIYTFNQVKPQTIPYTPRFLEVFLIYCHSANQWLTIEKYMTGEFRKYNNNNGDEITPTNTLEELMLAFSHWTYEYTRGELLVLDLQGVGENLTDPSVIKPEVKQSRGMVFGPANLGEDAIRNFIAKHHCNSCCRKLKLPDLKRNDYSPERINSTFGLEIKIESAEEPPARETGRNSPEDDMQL
Method: as §1
(Figure 2A). We next utilized fluorescence polarization technology, a sensitive method to evaluate interactions between proteins and peptides. Using this methodology, we first evaluated how polarization of a fluorescently labelled peptide encompassing the dimerization motif was affected by titration of TRPM6-(1730–end) (which lacks the dimerization motif). […]
Figure 2 Identification of dimerization motif residues in TRPM6 (A) Structural model of TRPM7 α-kinase depicting the N-terminal non-catalytic α-helix of one monomer that interacts with the kinase segment of the other monomer. (B) Fluorescence polarization analysis of wild-type (WT) and mutant (Mut) dimerization motif peptides with E. coli-purified GST-tagged TRPM6-(1730–end). […] The samples were analysed by immunoblotting with anti-GST antibody (top panel). […]

## biotin-C6-LKSPQEPHHHYSAIERNNLMRLSQ-TIPFTPVQLFAGEEITV [biotinylated dimerization motif peptide, biotin-C6 wild-type dimerization motif peptide; conjugated to streptavidin–Sepharose]
[1]
  interaction with biotinylated dimerization motif peptide (pull-down): do not interact
[2]
  affinity purification of TRPM6-(1730–end) (pull-down): could efficiently purify TRPM6-(1730–end)
